Literature values, collected in US11166956B2, “Combinations of PDE1 inhibitors and NEP inhibitors” (INTRA-CELLULAR THERAPIES, INC., priority 2014, dated 2021).
Each block holds one molecule with its values, some of them ahead of it.

Columns and labels:
[1] = target: NEP (Homo sapiens, UniProt P08473)
[2] = system: PDE1
[3] = system: NEP and ACE; conditions: clinical studies

Chain of NEP (P08473 whole entry): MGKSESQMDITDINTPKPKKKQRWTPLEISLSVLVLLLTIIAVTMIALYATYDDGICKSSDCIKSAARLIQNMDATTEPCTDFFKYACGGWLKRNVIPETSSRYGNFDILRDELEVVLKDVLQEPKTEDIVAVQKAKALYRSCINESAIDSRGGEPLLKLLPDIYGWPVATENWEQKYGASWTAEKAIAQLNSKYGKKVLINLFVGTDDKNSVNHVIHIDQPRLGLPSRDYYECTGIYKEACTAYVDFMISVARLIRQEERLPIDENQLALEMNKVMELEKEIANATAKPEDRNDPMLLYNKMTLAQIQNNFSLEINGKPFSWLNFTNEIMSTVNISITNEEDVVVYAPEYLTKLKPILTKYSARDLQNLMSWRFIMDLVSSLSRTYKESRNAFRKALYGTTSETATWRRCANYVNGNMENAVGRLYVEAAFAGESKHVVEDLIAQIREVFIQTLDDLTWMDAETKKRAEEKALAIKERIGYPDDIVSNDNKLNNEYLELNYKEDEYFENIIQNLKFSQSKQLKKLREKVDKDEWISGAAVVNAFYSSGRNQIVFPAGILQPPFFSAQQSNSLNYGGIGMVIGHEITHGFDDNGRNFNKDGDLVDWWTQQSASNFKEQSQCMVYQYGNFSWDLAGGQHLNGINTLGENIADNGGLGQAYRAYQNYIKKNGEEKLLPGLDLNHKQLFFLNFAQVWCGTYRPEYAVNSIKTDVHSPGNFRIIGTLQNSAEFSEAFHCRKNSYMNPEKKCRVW

- plasma ANP and cGMP levels ([1]; in vivo): dose-dependent increase
SMILES: COCCOC[C@H](CC1(C(=O)N[C@H]2CC[C@@H](C(=O)O)CC2)CCCC1)C(=O)Oc1ccc2c(c1)CCC2 [Candoxatril]
- blood-pressure lowering effect ([1]; in vivo): does not produce a stable blood-pressure lowering effect
- levels of endothelin ([1]; patients with heart failure): increase levels of endothelin significantly

SMILES: COc1cc2c(c(O)c1OC)C(=O)C[C@@H](c1cc(O)ccc1O)O2 [dioclein]
- vasodilation [2]: induce PKG-dependent vasodilation

SMILES: O=C(N[C@H]1CCS[C@H]2CCC[C@@H](C(=O)O)N2C1=O)[C@@H](S)Cc1ccccc1 [omapatrilat]
- incidence of angioedema [3]: severe incidence of angioedema
